A short description of data set [1]: AUC values (0-48 h) of 7-deoxydoxorubicin aglycone in plasma following single intravenous epirubicin at 10 mg.Kg-1 dose in female mouse bearing colon tumor. Type of data set: ADME, organism-based, BALB/c. Particulars: in vivo.
Data set [2] is described as follows: AUC values (0-48 h) of 7-deoxydoxorubicin aglycone in heart following single intravenous epirubicin at 10 mg.Kg-1 dose in female mouse bearing colon tumor. Type of data set: ADME, organism-based, BALB/c. Particulars: in vivo.
The nature of data set [3]: Recovery of 7-deoxy doxorubicin-aglycone following intraperitoneal epirubicin at 4 mg.Kg-1 dose in hamster. Type of data set: ADME, organism-based, Cricetulus griseus, Plasma. Particulars: chinese hamster, in vivo, ip.
The nature of data set [4]: Recovery of 7-deoxy doxorubicin-aglycone following intravenous epirubicin at 1.5 mg.Kg-1 dose in man. Particulars: human, in vivo. Type of data set: ADME, organism-based, Plasma.
Data set [5] can be described thus: Detection of 7-deoxy doxorubicin-aglycone in plasma following single intravenous doxorubicin at 10 mg.Kg-1 dose in female mouse bearing colon tumor. Particulars: in vivo. More on the design: dose 10 mg.Kg-1, dosed compound id 2.46809e+06, dosed compound name Doxorubicin, gender F, regimen Single, route intravenous, sampling time 48 h. Type of data set: ADME, organism-based, BALB/c.

Data set [6] is described as follows: Recovery of 7-deoxy doxorubicin-aglycone following intraperitoneal epirubicin at 4 mg.Kg-1 dose in mouse. Type of data set: ADME, organism-based, CD-1, Plasma. Particulars: in vivo, ip.
Data set [7] is described as follows: Detection of 7-deoxy epirubicin-aglycone in tumor following single intravenous epirubicin at 10 mg.Kg-1 dose in female mouse bearing colon tumor. Type of data set: ADME, organism-based, BALB/c, Neoplasm. Particulars: in vivo.
The nature of data set [8]: Detection of 7-deoxy epirubicin-aglycone in heart following single intravenous epirubicin at 10 mg.Kg-1 dose in female mouse bearing colon tumor. Particulars: in vivo. Type of data set: ADME, organism-based, BALB/c.
The nature of data set [9]: AUC values (0-48 h) of 7-deoxydoxorubicin aglycone in heart following single intravenous doxorubicin at 10 mg.Kg-1 dose in female mouse bearing colon tumor. Type of data set: ADME, organism-based, BALB/c. More on the design: time < 48 hr, dose 10 mg.Kg-1, dosed compound id 2.46809e+06, dosed compound name Doxorubicin, gender F, regimen Single, route intravenous, sampling time 48 h. Particulars: in vivo.

Data set [10] can be described thus: Detection of 7-deoxy epirubicin-aglycone in plasma following single intravenous epirubicin at 10 mg.Kg-1 dose in female mouse bearing colon tumor. Type of data set: ADME, organism-based, BALB/c. Particulars: in vivo.
The nature of data set [11]: AUC values (0-48 h) of 7-deoxydoxorubicin aglycone in tumor following single intravenous doxorubicin at 10 mg.Kg-1 dose in female mouse bearing colon tumor. Type of data set: ADME, organism-based, BALB/c, Neoplasm. Also on record: time < 48 hr, dose 10 mg.Kg-1, dosed compound id 2.46809e+06, dosed compound name Doxorubicin, gender F, regimen Single, route intravenous, sampling time 48 h. Particulars: in vivo.

The nature of data set [12]: AUC values (0-48 h) of 7-deoxydoxorubicin aglycone in tumor following single intravenous epirubicin at 10 mg.Kg-1 dose in female mouse bearing colon tumor. Type of data set: ADME, organism-based, BALB/c, Neoplasm. Particulars: in vivo.
Data set [13] can be described thus: AUC values (0-48 h) of 7-deoxydoxorubicin aglycone in plasma following single intravenous doxorubicin at 10 mg.Kg-1 dose in female mouse bearing colon tumor. Type of data set: ADME, organism-based, BALB/c. Also on record: time < 48 hr, dose 10 mg.Kg-1, dosed compound id 2.46809e+06, dosed compound name Doxorubicin, gender F, regimen Single, route intravenous, sampling time 48 h. Particulars: in vivo.

Data set [14] in a line: Detection of 7-deoxy doxorubicin-aglycone in heart following single intravenous doxorubicin at 10 mg.Kg-1 dose in female mouse bearing colon tumor. More on the design: dose 10 mg.Kg-1, dosed compound id 2.46809e+06, dosed compound name Doxorubicin, gender F, regimen Single, route intravenous, sampling time 48 h. Type of data set: ADME, organism-based, BALB/c. Particulars: in vivo.

A short description of data set [15]: Recovery of 7-deoxy doxorubicin-aglycone following intravenous epirubicin at 4 mg.Kg-1 dose in rat. Type of data set: ADME, organism-based, SD, Plasma. Particulars: in vivo.
Data set [16] in a line: Recovery of 7-deoxy doxorubicin-aglycone following intravenous epirubicin at 4 mg.Kg-1 dose in rabbit. Particulars: in vivo. Type of data set: ADME, organism-based, Oryctolagus cuniculus, New Zealand White, Plasma.
Data set [17] in a line: Detection of 7-deoxy doxorubicin-aglycone in tumor following single intravenous doxorubicin at 10 mg.Kg-1 dose in female mouse bearing colon tumor. Particulars: in vivo. Also on record: dose 10 mg.Kg-1, dosed compound id 2.46809e+06, dosed compound name Doxorubicin, gender F, regimen Single, route intravenous, sampling time 48 h. Type of data set: ADME, organism-based, BALB/c, Neoplasm.

With `COc1cccc2c1C(=O)c1c(O)c3c(c(O)c1C2=O)C[C@@](O)(C(=O)CO)CC3`, the AUC in [1] worked out at 1.6 nmol·min/mL; in data set [2], 49 nmol·min/g; in data set [9] it was 152 nmol·min/g; in [11], 135 nmol·min/g; in data set [12], 11 nmol·min/g; in data set [13], 4.1 nmol·min/mL. Further, the Compound recovery in data set [3] is 1.3 10^-9M; in [4] it was 14 10^-9M; in data set [5] it was “OUTCOME = Observed”; in data set [6], 0 10^-9M; in data set [7], “OUTCOME = Observed”; in data set [8], “OUTCOME = Observed”. Besides, the Compound recovery entry is “OUTCOME = Observed” in data set [10]; “OUTCOME = Observed” in data set [14]; 0 10^-9M in data set [15]; 0 10^-9M in data set [16]; “OUTCOME = Observed” in data set [17].
